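Following 48 hours of exposure in 96-well plates, responses at five concentrations were used to interpolate endpoints linearly. GI50 = concentration required for 50% inhibition of growth. TGI is the concentration that stops growth completely.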 Where a SMILES comes first, the peptide text is derived from it. The star is where a group is joined. Boc = CC(C)(C)OC(=O)*; OSu = O=C1CCC(=O)N1O*
Tests used:
Assay in all cases: DTP human tumour cell line panel, 48 h
SW-620 colon = tested on: SW-620 colon
SK-MEL-5 melanoma = tested on: SK-MEL-5 melanoma
RXF 393 renal = tested on: RXF 393 renal
SK-MEL-28 melanoma = tested on: SK-MEL-28 melanoma
IGROV1 ovarian = tested on: IGROV1 ovarian
NCI-H460 lung = tested on: NCI-H460 lung
A498 renal = tested on: A498 renal
BT-549 breast = tested on: BT-549 breast
CCRF-CEM leukemia = tested on: CCRF-CEM leukemia
SNB-19 CNS = tested on: SNB-19 CNS
SF-539 CNS = tested on: SF-539 CNS

Row | Structure (SMILES) | TGI (SW-620 colon) [µM] | TGI (SK-MEL-5 melanoma) [µM] | TGI (RXF 393 renal) [µM] | TGI (SK-MEL-28 melanoma) [µM] | TGI (IGROV1 ovarian) [µM] | TGI (NCI-H460 lung) [µM] | TGI (A498 renal) [µM] | TGI (BT-549 breast) [µM] | TGI (CCRF-CEM leukemia) [µM] | TGI (SNB-19 CNS) [µM] | TGI (SF-539 CNS) [µM] | GI50 (SW-620 colon) [µM] | GI50 (SK-MEL-5 melanoma) [nM] | GI50 (SK-MEL-28 melanoma) [µM] | GI50 (A498 renal) [µM] | GI50 (CCRF-CEM leukemia) [nM] | GI50 (SNB-19 CNS) [nM]
1 | CC(C)(C)OC(=O)NC(Cc1ccc(O)cc1)C(=O)NC(CCCCN)C(=O)NC(Cc1ccc(O)cc1)C(=O)NC(CCCCN)C(=O)ON1C(=O)CCC1=O (centres undefined) (Boc-YKYK-OSu; configuration not given here) | > 100 | > 100 | > 100 | > 100 | > 100 | > 100 | > 100 | > 100 | > 100 | > 100 |  |  |  |  |  |  | 
2 | Clc1nc(Cl)nc(NC23CC4CC(CC(C4)C2)C3)n1 | 31.5 | 26.6 | 32.1 | 36.8 | 28.3 | 60.4 | > 58.3 | 35.6 | 23.1 | 40.3 | 35 |  |  |  |  |  | 
3 | COc1ncc(C=C(C#N)C#N)c(OC)n1 | > 100 | > 100 | > 100 | > 100 | > 100 | > 100 | > 100 | > 100 | 32.6 | > 100 | > 100 |  |  |  |  |  | 
4 | C[C@]12OC[C@H](c3ccccc3)N1C(=O)C1[C@H]2CC12SCCS2 (some centres undefined) | > 100 | > 100 | > 100 | > 100 | > 100 | > 100 | > 100 | > 100 | > 100 | > 100 | > 100 |  |  |  |  |  | 
5 | CC[C@@H]1CC[C@@H]2[C@H](CC[C@]3(C)[C@@H](O)CC[C@@H]23)[C@H]1C(=O)O | > 100 | > 100 | > 100 | > 100 | > 100 | > 100 | > 100 | > 100 | > 100 | > 100 | > 100 |  |  |  |  |  | 
6 | Nc1nc(Cl)cc(NCC2(CO)CC(CCc3ccccc3)C2)n1 (centres undefined) | > 100 | > 38.1 | > 100 | > 100 | > 100 | > 100 | > 100 | > 100 | > 100 | > 100 | > 100 |  |  |  |  |  | 
7 | CC(=O)C(CN1CCCCC1)C(c1ccccc1)c1c(O)c2ccccc2oc1=O (centres undefined) | > 100 | > 100 | > 100 | > 100 | > 100 | > 100 | > 100 | > 100 | > 100 | > 100 | > 100 |  |  |  |  |  | 
8 | CCOC(=O)c1cc2c([N+](=O)[O-])c(NC(C)=O)ccc2s1 | > 100 | > 100 | > 100 | > 100 | > 100 | > 100 | > 100 | > 100 | > 100 | > 100 | > 100 |  |  |  |  |  | 
9 | Cc1cn(C2CC(N)C(CN)O2)c(=O)[nH]c1=O (centres undefined) | > 100 | > 100 | > 100 | > 100 | > 100 | > 100 | > 100 | > 100 | > 100 | > 100 | > 100 |  |  |  |  |  | 
10 | c1cc(-c2cnc(-c3ccc4c(c3)CCCO4)o2)ccn1 |  | 25.4 | 43.7 | 32.2 | 36.5 |  | 25.8 | 29.1 | 29.7 | 40.9 | 21.8 |  |  |  |  |  | 
11 | COc1cc(COC(=O)N[C@H](C(=O)O)C(C)(C)C)c([N+](=O)[O-])cc1OC | > 100 | > 100 | > 100 | > 100 | > 100 | > 100 | > 100 | > 100 | > 100 | > 100 | > 100 |  |  |  |  |  | 
12 | Cc1ccc(S(=O)(=O)N2CCN3C(=O)c4ccccc4C32c2ccc(F)cc2)cc1 (centres undefined) | > 100 | 35.2 | > 100 | > 100 | > 100 | > 100 | 63.5 | > 100 | 80 | > 100 |  |  |  |  |  |  | 
13 | CCCN=C1CC(C)Nc2ccccc2N1 (centres undefined) | > 100 | > 100 | > 100 | > 100 | > 100 | > 100 | > 100 | > 100 | > 100 | > 100 |  |  |  |  |  |  | 
14 | CCCCc1c(O)nc(Nc2nc3ccccc3[nH]2)[nH]c1=O | > 100 | > 100 | > 100 | > 100 | > 100 | > 100 | > 100 | > 100 | > 100 | > 100 | > 100 |  |  |  |  |  | 
15 | O=c1c2c3ccccc3[nH]c2c2cccc3c2n1CCC3 | > 100 | 79.2 | > 100 | > 100 | > 100 | > 100 | > 100 | 91 | > 100 | > 100 | > 100 |  |  |  |  |  | 
16 | CC(C)(C)OC(=O)NC(C)(C)C(=O)NCCC(=O)O | > 100 | > 100 | > 100 | > 100 | > 100 | > 100 | > 100 | > 100 | > 100 | > 100 | > 100 |  |  |  |  |  | 
17 | COc1ccc(N2C(=O)C3c4[nH]c5ccc([N+](=O)[O-])cc5c4C4CCC(C(C)(C)C)CC4C3C2=O)cc1 (centres undefined) | > 100 | 33.8 | 9.34 | > 100 | > 100 | 63.9 | 7.56 | > 100 | > 100 | > 100 | > 100 |  |  |  |  |  | 
18 | CCCCCCCCCC[C@@H](O)[C@H]1CC[C@H]([C@H]2CC[C@H]([C@H](O)CCCCCCCCCC[C@@H]3CC(CC(C)=O)C(=O)O3)O2)O1 (some centres undefined) | > 50 | > 21.5 | > 50 | > 50 | > 50 | > 50 | > 50 | > 50 | > 50 | > 50 | > 50 | 5.19 | 1970 | 5.26 | 7.44 | 1740 | 1080
